Values after ≈ are worked out from the molar mass of the structure shown. Values joined by “and” are separate entries in the source; they are usually repeats but may differ in a detail not shown here. Equal entries are not always repeated.
Experiments:
[1] = tested on: T. cruzi; test: T. cruzi in vitro washout assay; type: cell-based, Trypanosoma cruzi; settings: for relapses, days post washout: 16-day treatment at 25-fold EC50, two replicates each
Excerpt: T. cruzi in vitro washout assay
This assay was run as previously reported:
Marco M.; Miles T.J.; Naylor C.; Osuna-Cabello M.; Paterson C.; Read K.D.; Pinto E.G.; Riley
J.; Scullion P.; Shishikura Y.; Simeons F.; Stojanovski L.; Svensen N.; Thomas J.; Wyatt P.G.;
disubstituted piperazines for the treatment of Chagas disease. […]

[2] = tested on: T. cruzi; test: Chronic mouse efficacy model of Chagas disease; type: in vivo, Balb/c mice
Description: All regulated procedures on living animals were carried out under the authority of a project license issued by the Home Office under the Animals (Scientific Procedures) Act 1986, as amended in 2012 (and in compliance with EU Directive EU/2010/63). Infected animals had access to food and water ad libitum and were housed under a 12-hour light/dark photoperiod.
Animals used in these experiments were female NMRI and Balb/c mice (Harlan, UK). […]
In vivo Mouse Efficacy Studies.
The T. cruzi chronic efficacy study was run in Balb/c mice as previously described:
M.D. Lewis, A. Fortes Francisco, M.C. Taylor, J.M. Kelly, A new experimental model for assessing drug efficacy against Trypanosoma cruzi infection based on highly sensitive in vivo imaging, J. Biomol. Screen 20 (1) (2015) 36–43

[3] = tested on: host VERO cells
[4] = ChromLogD; type: physicochemical; settings: pH 7.4; read-out: Chrom LogDpH7.4
Description: Chrom LogD was measured as previously described:
solubility and hydrophobicity. Drug Discov. Today 2010, 15, 648−655. […]

[5] = tested on: intracellular T. cruzi X10/7 A1 amastigotes
[6] = biological target: Human 20S proteasome (Homo sapiens, UniProt P28074+P49721); test: human proteasome assay (chymotrypsin-like activity, Suc-LLVY-Rho-110-DPro); settings: for Emax: read-out: Hs Prot Max Response (%), individual replicate
Description: T. cruzi and human proteasome assays
(§2) The T. cruzi proteasome was partially purified as described in the above reference and Human
(§3) 20S proteasome was purchased from Boston Biochem (now R&D Systems, catalogue number
(§4) a Tecan Fluent to titrate over 11 points in Labcyte Echo-compatible Greiner Bio-One 384 well
(§5) polypropylene microplates. Subsequently, 100 nl of test compound titrations were transferred
(§6) to black Greiner Bio-One low volume 384 well microplates using a Labcyte Echo acoustic
(§7) 50 mM HEPES pH 7.5, 150 mM sodium chloride, 5% Glycerol, 1 mM dithiothreitol, 1 mM
(§8) CHAPS in deionised, filtered water (all chemicals purchased from Sigma Aldrich). Human 20S
(§9) These enzyme solutions were prepared immediately prior to assay initiation and stored at 4 °C
(§10) To monitor the Chymotrypsin-like activity of the T. cruzi and Human 20S proteasome proteins
(§11) a self-quenched, Rhodamine 110-labelled peptide with the sequence Suc-LLVY-Rho-110-
(§12) DPro was used (prepared by Cambridge Research Biochemicals. Suc is succinyl, while DPro
(§13) refers to ᴅ-proline). The peptide was initially prepared from solid as a 10 mM solution in 100%
(§14) DMSO and stored at -20 °C. Prior to use in the assay, an aliquot was thawed at room
(§15) to twofold Km. For use with the Human 20S proteasome, the Suc-LLVY-Rho-110-DPro
(§16) peptide was diluted in assay buffer to a concentration equivalent to twofold Km, which for this
(§17) enzyme was 2 μM. The peptide solutions were protected from light and stored at 4 °C before
(§18) A Multidrop Micro (Thermo Fisher), using a low volume dispense cassette, was used to add
(§19) the assay solutions to the test compounds in the low volume 384-well microplates. Prior to
(§20) addition of proteasome solution, 5 μl of assay buffer was added to one column (containing 100
(§21) nl, 100% DMSO) to act as no enzyme control to mimic full inhibition. Subsequently, 5 μl of
(§22) proteasome solution (either T. cruzi or Human 20S) was added to all wells on the test
(§23) microplate apart from the column containing 5 μl assay buffer. The microplate was then spun
(§24) using a suitable bench top centrifuge for 1 minute at 1000 rpm, before incubation at room
(§25) Following the initial incubation, 5 μl of substrate solution was then added to all wells on the
(§26) test microplate using a Multidrop Micro equipped with a discrete low volume dispense cassette.
(§27) The test microplates were then spun for 10 seconds at 1000 rpm before being rapidly moved to
(§28) a multi-mode microplate reader, capable of monitoring fluorescence intensity. The microplate
(§29) reader used for these studies was a Tecan M1000 Pro, equipped with quad monochromators.
(§30) 530 ± 5 nm. A series of fluorescence intensity measurements were taken every 30 seconds for
(§31) Subsequently, the fluorescence intensity measurements (relative fluorescence units, RFU) were
(§32) fit to a simple linear regression model (y = A + Bx, where y refers to the fluorescence intensity
(§33) and x refers to the time in seconds) to determine the initial rate of reaction. The initial rate for
(§34) every compound concentration tested was then fit a 4-parameter logistic model: y = (A + (B -
(§35) A)) / (1 + (x / C)D), where y refers to the assay response, x refers to the inhibitor concentration,
(§36) A and B are the range values (minimum and maximum, respectively), C is the IC50 value and
(§37) D is the slope. Potency values were then reported as pIC50, which is the negative log of the
(§38) IC50 (on a molar scale). Data analysis was automated and carried out using the ActivityBase

[7] = biological target: T. cruzi proteasome (Trypanosoma cruzi, UniProt V5BU39+V5C017); test: T. cruzi proteasome assay (chymotrypsin-like activity, Suc-LLVY-Rho-110-DPro); settings: for Tc Prot Hill Slope / Tc Prot Max Response (%): individual replicate; for Emax: read-out: Tc Prot Max Response (%), individual replicate
Description: T. cruzi and human proteasome assays
as §2, §3, §4, §5, §6, §7, §8, §9, §10, §11, §12, §13, §14, §15, §16, §17, §18, §19, §20, §21, §22, §23, §24, §25, §26, §27, §28, §29, §30, §31, §32, §33, §34, §35, §36, §37, §38

[8] = Mouse microsomal intrinsic clearance; type: in vitro ADME; settings: mouse liver microsomes, scaling 52.5 mg microsomal protein/g liver
Description: Mouse microsomal intrinsic clearance.
This assay was conducted as previously described:
J.; Reid, I. H.; Hill, A. P.;
(§1) were prepared by adding a volume (5 µL) of the 10 mM solution to a volume (195 µL) of […]

[9] = Kinetic aqueous solubility (UHPLC, PBS pH 7.4); type: physicochemical; settings: phosphate buffered saline, UHPLC UV/MS
Description: This assay was conducted as previously described: […]
as §1
format). Samples were then drawn through the filter using vacuum. The filtrate from the above […]
formic acid gradient elution. The UHPLC parameters are shown below:
Gradient program: Initial: 98% A, 2% B
Re-equilibration time: 0.6 min
Autosampler temperature: 25°C
Detector wavelength: 254 nm

[10] = mean of at least three independent replicates
[11] = T. cruzi Prot pIC50, mean of at least three independent replicates
[12] = Tc Prot pIC50, individual replicate

T. cruzi proteasome, sequence (V5BU39 entry or part of it): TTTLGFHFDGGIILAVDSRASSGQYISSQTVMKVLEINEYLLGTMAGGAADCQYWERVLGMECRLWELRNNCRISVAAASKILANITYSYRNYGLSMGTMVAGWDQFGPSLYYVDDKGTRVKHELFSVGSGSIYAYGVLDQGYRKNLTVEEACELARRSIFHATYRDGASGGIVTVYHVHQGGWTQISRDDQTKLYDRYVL
T. cruzi proteasome, sequence (V5C017 entry or part of it): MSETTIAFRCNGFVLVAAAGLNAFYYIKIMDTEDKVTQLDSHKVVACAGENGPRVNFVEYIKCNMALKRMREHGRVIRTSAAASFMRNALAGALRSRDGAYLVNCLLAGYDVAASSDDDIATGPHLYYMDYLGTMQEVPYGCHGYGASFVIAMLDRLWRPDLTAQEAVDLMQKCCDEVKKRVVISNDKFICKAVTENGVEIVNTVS

| Structure (SMILES) | EC50 [3] | chromatographic logD [4] | EC50 [5] | Hs Prot Max Response (%) ([6]; individual replicate) | Hs Prot pIC50 ([6]; individual replicate) | Hs Prot pIC50 [6, 10] | Emax [6] | IC50 [7, 11] | IC50 [7, 12] | Tc Prot Hill Slope [7] | Tc Prot Max Response (%) [7] | Emax [7] | Mouse CLi [8] | solubility at 24 h [9] | Emax [5] | also measured |
| --- | --- | --- | --- | --- | --- | --- | --- | --- | --- | --- | --- | --- | --- | --- | --- | --- |
| O=C(Cn1ccnc1[N+](=O)[O-])NCc1ccccc1 [BNZ, benznidazole, reference compound] | – | – | – | – | – | – | – | – | – | – | – | – | – | – | – | relapses, days post washout [1]: 31 days and 35 days; parasites relapsing on day ([1]; 8 days of treatment, 50-fold EC50): 21 days; cure ([2]; 100 mg/kg for 20 days, u.i.d): cured all mice; effect on parasite levels ([2]; dosed at 100 mg/kg): reduced parasite levels below detectable limits |
| O=C(Nc1cccc(C(=O)NC2CC2)c1)c1ccc(=O)n(Cc2ccccc2)c1 [Compound 8, 1-Benzyl-N-(3-(cyclopropylcarbamoyl)phenyl)-6-oxo-1,6-dihydropyridine-3-carboxamide] | > 50100 nM and 39800 nM and 25100 nM | 3.3 | > 50100 nM | 12% and 6% | < 4 | <4 | 10% | 1580 nM | 2510 nM and 2000 nM and 794 nM | 1.0 and 0.9 | 85% and 77% | 80% | 0.8 mL/min/g | – | – | – |
| O=C(Nc1ccc(F)c(C(=O)NC2CC2)c1)c1ccc(=O)n(Cc2ccccc2)n1 [Compound 9, 1-Benzyl-N-(3-(cyclopropylcarbamoyl)-4-fluorophenyl)-6-oxo-1,6-dihydropyridazine-3-carboxamide] | > 50100 nM | 4.2 | 2000 nM | 8.53% and 11% and 6% | < 4 | <4 | 7% | 158 nM | 251 nM and 200 nM and 100 nM | 1.0 and 0.9 | 83% and 82% | 71% | 6.7 mL/min/g | 218 µM (≈ 88.6 µg/mL) | 94% and 90% and 82% and 88% and 89% | Emax [3]: 29% |
| O=C(NC1CC1)c1ccc(F)c(NC(=O)c2ccc(=O)n(Cc3ccccc3)n2)c1 [Compound 10, 1-Benzyl-N-(5-(cyclopropylcarbamoyl)-2-fluorophenyl)-6-oxo-1,6-dihydropyridazine-3-carboxamide] | > 50100 nM | 4.1 | > 50100 nM | 17% and 3% and 2.27% | < 4 | <4 | – | 1580 nM | > 100000 nM | 1.2 | 35% and 20% and 57% | – | 3.1 mL/min/g | 1.5 µM (≈ 0.61 µg/mL) | – | – |
| O=C(Nc1ccc(F)c(C(=O)NC2CC2)c1)c1ccc(=O)n(CC2CCCCC2)n1 [Compound 11, 1-(Cyclohexylmethyl)-N-(3-(cyclopropylcarbamoyl)-4-fluorophenyl)-6-oxo-1,6-dihydropyridazine-3-carboxamide] | > 50100 nM | 5.3 | 7940 nM and 10000 nM and 5010 nM and 6310 nM | 13% and 33% | < 4 | <4 | – | 398 nM | 501 nM and 316 nM | 0.9 and 0.85 | 87% | 78% | 7.3 mL/min/g | – | 84% and 78% and 86% and 88% | Emax [3]: 11% |
| COc1ccc(Cn2nc(C(=O)Nc3ccc(F)c(C(=O)NC4CC4)c3)ccc2=O)cc1 [Compound 12, N-[3-(Cyclopropylcarbamoyl)-4-fluorophenyl]-1-[(4-methoxyphenyl)methyl]-6-oxo-pyridazine-3-carboxamide] | – | 4.2 | 398 nM and 316 nM and 501 nM | 8% and 12% and 18% | < 4 | <4 | – | 31.6 nM | 39.8 nM and 25.1 nM | 0.95 and 0.9 | 80% and 85% | 67% | 2.4 mL/min/g | 83 µM (≈ 36.2 µg/mL) | 56% and 99% and 66% | – |
| COc1ccc(Cn2nc(C(=O)Nc3ccc(F)c(C(=O)NC4CC4)c3)ccc2=O)cc1Cl [Compound 14, 1-[(3-Chloro-4-methoxy-phenyl)methyl]-N-[3-(cyclopropylcarbamoyl)-4-fluorophenyl]-6-oxo-pyridazine-3-carboxamide] | > 50100 nM | 4.7 | 50.1 nM and 39.8 nM and 63.1 nM | 17% and 49% | < 4 | <4 | – | < 10 nM and 3.16 nM | 5.01 nM and 2 nM | 0.95 and 0.9 | 86% | 80% | 1.6 mL/min/g | < 1 µM | 92% and 94% and 90% and 93% | – |
| COc1ccc(Cn2nc(C(=O)Nc3ccc(F)c(C(=O)NC4CC4)c3)ccc2=O)cc1C#N [Compound 16, 1-[(3-Cyano-4-methoxy-phenyl)methyl]-N-[3-(cyclopropylcarbamoyl)-4-fluorophenyl]-6-oxo-pyridazine-3-carboxamide] | – | 4 | 158 nM and 200 nM and 126 nM and 100 nM | 5% | < 4 | <4 | 4% | 10 nM | 12.6 nM | 1.2 and 1.1 | 62% | 72% | 0.7 mL/min/g | < 1 µM | 91% and 90% and 102% and 87% and 92% | – |
| O=C(Nc1ccc(F)c(C(=O)NC2CC2)c1)c1ccc(=O)n(Cc2ccc(Cl)c(F)c2)n1 [Compound 17, 1-[(4-Chloro-3-fluorophenyl)methyl]-N-[3-(cyclopropylcarbamoyl)-4-fluorophenyl]-6-oxo-pyridazine-3-carboxamide] | > 50100 nM | 5.1 | 200 nM | 21% and 22% and 27% and 11% | < 4 | <4 | – | 25.1 nM | 39.8 nM and 20 nM | 0.9 and 1.0 | 87% and 86% | 80% | 4.8 mL/min/g | 21 µM (≈ 9.64 µg/mL) | 90% and 93% | – |
| COc1ncc(Cn2nc(C(=O)Nc3ccc(F)c(C(=O)NC4CC4)c3)ccc2=O)cc1F [Compound 18, N-(3-(Cyclopropylcarbamoyl)-4-fluorophenyl)-1-((5-fluoro-6-methoxypyridin-3-yl)methyl)-6-oxo-1,6-dihydropyridazine-3-carboxamide] | > 50100 nM | 5.6 | 50100 nM | 13% | < 4 | <4 | 10% | 2510 nM | 5010 nM and 1580 nM | 1.2 and 1.1 | 80% | 75% | 3.5 mL/min/g | < 1 µM | 53% and 54% and 55% and 67% and 52% | – |
| COc1ccc(Cn2nc(C(=O)Nc3ccc(F)c(C(=O)NCCN4CCOCC4)c3)ccc2=O)cc1 [Compound 21, N-[4-Fluoro-3-(2-morpholinoethylcarbamoyl)phenyl]-1-[(4-methoxyphenyl)methyl]-6-oxo-pyridazine-3-carboxamide] | > 50100 nM | 3.7 | 1580 nM and 1000 nM | 12% | < 4 | <4 | 9% | 126 nM | 126 nM | 1.0 and 0.9 | 72% | 80% | 3.6 mL/min/g | 200 µM (≈ 102 µg/mL) | 95% and 94% and 98% and 96% and 92% | – |
| CNC(=O)c1cc(NC(=O)c2ccc(=O)n(Cc3ccc(OC)cc3)n2)ccc1F [Compound 26, N-(4-Fluoro-3-(methylcarbamoyl)phenyl)-1-(4-methoxybenzyl)-6-oxo-1,6-dihydropyridazine-3-carboxamide] | > 50100 nM | – | 794 nM and 631 nM and 501 nM and 1000 nM | 21% and 3% and 0% | < 4 | <4 | – | – | 63.1 nM and 31.6 nM | 1.0 and 1.1 | 82% | 73% | – | – | 92% and 94% and 95% and 87% and 86% and 98% and 90% | Emax [3]: 20%; relapses, days post washout [1]: 35 days and 42 days; cure ([2]; 50 mg/kg b.i.d for 20 days): not curative |

— paper PMC10424187, “Structure-Guided Design and Synthesis of a Pyridazinone Series of Trypanosoma cruzi Proteasome Inhibitors” (Journal of Medicinal Chemistry, 2023)
